Laboratory results published in article PMC8148468, “Shikimic acid protects skin cells from UV-induced senescence through activation of the NAD+-dependent deacetylase SIRT1” (Aging (Albany NY), 2021).
Where two headings read alike, the source gives them in different places.

What was measured:
[1] = test system: primary human dermal fibroblasts (HDFs)
Excerpt: In our efforts to identify novel factors that could prevent skin cell senescence, we developed a screening process to identify new modulators of the protective role of sirtuins in UV-induced senescence. For this purpose, we established a culture of primary human dermal fibroblasts (HDFs). […] Our first step in the screening was to establish the optimal concentrations of these compounds in the case of HDFs. […] Once established, we took these parameters into account to decide the specific working range of concentrations for each compound.
Human dermal fibroblasts (HDFs) (Promocell, Germany) from 40-year old Caucasian women were used as the in vitro model for compound viability and efficacy screening. Cells were cultured in Dulbecco's modified eagle medium (DMEM) low glucose (Biowest, France) supplemented with 10% fetal bovine serum (FBS) (Capricorn Scientific, Germany) and 10 U/mL penicillin/streptomycin (Biowest, France) in a humidified incubator at 37° C and 5% CO2. For cell passage, cells at 80% confluence were trypsinized and plated at 60% confluence. Cells between passage 13 and 18 were used for the assays. For the SIRT1 in vitro assay, HEK293 cells (ATCC, USA), used to transfect and immunoprecipitate SIRT1 protein, were grown in DMEM high glucose (Thermo Fisher Scientific, USA), supplemented with 10% FBS in a humidified incubator at 37° C and 5% CO2. The following experiments were all performed in triplicate.
(§1) The protocol for senescence induction using UVB irradiation is described in the Supplementary Methods. SA-β-Gal staining, WST-1, sulforhodamine B (SRB) and trypan blue assays were performed as previously described. For the siRNA experiments, the protocol for senescence induction using UVB irradiation was the same as in the Supplementary Methods. Specific siRNA (Horizon discovery, UK) for SIRT1, SIRT2, SIRT6, BiP or scramble siRNA were incubated for 6 hours before each irradiation step.

[2] = test system: H4K16ac (the target of SIRT1 and SIRT2); assay: Sirtuin activity assay in HDF: H4K16ac levels (Western blot); assay type: cell-based, human; details: HDF treated 24h; for SIRT1,2 H4K16ac: Figure 1B; on SIRT1,2 H4K16ac: key: ↑: increase; ↓: decrease; hyphens that indicate no effect (-)
Description: (§2) Figure 1 (A) Schematic representation of the compound testing for sirtuin activity evaluation in HDF. Cells were treated with or without the compounds for 24h and harvested for analysis. […] (C) Western Blot analysis and (D) quantification of H4K16ac and H3K9ac levels in cells treated with Resveratrol or Shikimic acid at the indicated concentrations. H4K16 and H3K9 levels were normalized to H4 and H3 levels respectively. Student T-test, *p<0.05, **p<0.01, ***p<0.001.
(§3) HDFs were plated in 100x20 mm2 cell culture plates and after 24h, fresh cell culture medium containing the compounds was added. After 24h, cells were detached with cell scrapers, harvested, and processed for qPCR or western blot.
(§4) Protein levels were analyzed as previously described. Cells were directly lysed in 1x Laemmli Buffer (Bio-Rad, USA), incubated at 95° C and centrifuged. Supernatant was subjected to SDS-polyacrylamide gel electrophoresis, and successive steps were performed as described. The list of antibodies used is included in Supplementary Table 2.

[3] = test system: H3K9ac (the target of SIRT1, SIRT2 and SIRT6); assay: Sirtuin activity assay in HDF: H3K9ac levels (Western blot); assay type: cell-based, human; details: HDF treated 24h; for SIRT1,2,6 H3K9ac: Figure 1B; on SIRT1,2,6 H3K9ac: key: ↑: increase; ↓: decrease; hyphens that indicate no effect (-)
Description: as §2, §3, §4

[4] = test system: UVB-irradiated human dermal fibroblasts (HDFs); assay: UVB-induced senescence assay: SA-β-Gal staining; assay type: cell-based; details: for prevention of UV-induced cellular senescence: SA-β-Gal and HAS2 markers; for β-Gal: HDF, 2 cycles of UVB, compound day 1 to 7, Figure 2B; on β-Gal: key: ↑: increase; ↓: decrease; hyphens that indicate no effect (-)
Description: (§5) In the second approach, we established a method for inducing senescence in these cells with 2 cycles of UVB irradiation 72h apart (Figure 2A). The use of UVA to induce senescence was discarded due to its considerably longer time requirement, being unsuitable to screen 30 compounds within a reasonable period. Cells were treated with these compounds throughout the duration of the assay and cellular senescence was monitored with two markers: accumulation of SA-β-galactosidase (SA-β-Gal) activity, and the decrease in expression of HAS2 (hyaluronic acid synthase 2), a previously reported marker of skin senescence.
(§6) Figure 2 (A) Schematic representation of the protocol for senescence induction using UVB irradiation. Cells were treated -/+ the compounds from day 1 to 7 after seeding, irradiated with UVB on days 2 and 5 and harvested for analysis on day 7. […] (C) Phase-contrast (left column) and bright field (right column) microscope images of SA-β-Gal staining showing non-irradiated cells, UVB-irradiated cells non-treated and treated with Gallic acid or Shikimic acid at the indicated concentrations. (D) Percentage of SA-β-Gal positive cells and (E) Relative HAS2 mRNA levels in non-irradiated cells, UVB-irradiated cells and UVB-irradiated cells treated with Gallic acid or Shikimic acid at the indicated concentrations. Student T-test, *p<0.05, **p<0.01, ***p<0.001.
as §1
(§7) Senescence induction by UVB irradiation For the non-irradiation control conditions, HDF were […]
(§8) After 24h, culture medium was removed and well plates. After 24h, culture medium was removed replaced by fresh cell culture medium containing the and replaced with fresh cell culture medium containing compounds at different concentrations. After 24h, the compounds at different concentrations. […]
(§9) cell culture medium was removed, and cells were cells/plate in fresh cell culture medium containing the irradiated at 25 mJ/cm2 of UVB light (312 nm) in a Bio- compound in 6-well plates. After 3 days, cells were […]
(§10) amount of PBS. PBS was then removed and fresh cell fresh cell culture medium containing the compound in culture medium with the compound was added to each 6-well plates. After 2 days, cells were processed well. After 3 days, cells were irradiated again under the according to the qPCR, β-Gal staining, apoptosis, cell same conditions. After 2 days, cells were processed cycle or immunofluorescence protocols. according to the qPCR, β-Gal staining, apoptosis, cell cycle or immunofluorescence protocols.

[5] = test system: HAS2 (hyaluronic acid synthase 2); assay: UVB-induced senescence assay: HAS2 gene expression (qPCR); assay type: cell-based, human
Description: as §5, §6
RNA was extracted from cell pellets using the Total RNA Purification Kit (Norgen, Canada), according to the manufacturer’s protocol. Extracted RNA was quantified using a NanoDrop® ND-1000 UV-Vis Spectrophotometer (Thermo Fisher Scientific, USA) and 300 ng of RNA were retrotranscribed to cDNA using the PrimeScriptTM RT reagent kit (Takara Bio Inc., Japan). cDNA was diluted 1/10 in ultrapure water and qPCR mix was prepared by adding cDNA (12 ng), SYBR green supermix (Bio Rad, USA), forward and reverse primers (0.2μM). The primers and their respective sequences are listed in Supplementary Table 1. qPCR protocol included one step at 95° C for 30 s, 40 cycles at 95° C for 10s, and 60° C for 1min. The results were analyzed with Bio-Rad CFX Manager software. BACT was used as a housekeeping gene to normalize gene expression.
as §7, §8, §9, §10

[6] = HDFs, WST-1 cell viability test
[7] = HDFs, WST-1 cell viability test, maximum non-cytotoxic dose
[8] = HDF, 2 cycles of UVB, compound day 1 to 7, Figure 2B

Row | Structure (SMILES) | LD50 [1, 6] [mM] | Max. non-cyt. doses [1, 7] [mM] | effect on H4K16ac levels [2] | effect on H3K9ac levels [3] | prevention of UV-induced cellular senescence ([4]; UVB-irradiated HDF) | HAS2 expression [5, 8] | Max. non-cyt. doses [1] [mM] | SIRT1,2 H4K16ac [2] | SIRT1,2,6 H3K9ac [3] | β-Gal [4] | LD50 ([1]; female, human) [mM] | Max. non-cyt. doses ([1]; female, human) [mM] | SA-β-Gal accumulation/staining ([4]; UVB-irradiated HDF) | HAS2 expression ([5]; UVB-irradiated HDF)
1 | Oc1ccc2c(c1)OCO2 [Sesamol] | 4.358 | 0.5 | induced a similar effect on both targets | induced a similar effect on both targets | did not prevent cellular senescence | - |  |  |  |  |  |  |  | 
2 | C/C=C/C(=O)C1=C(C)C=CCC1(C)C [Damascenone] | 0.121 |  |  |  |  | - | 0.05 | - | - | - |  |  |  | 
3 | NC(=S)N/N=C/c1ccccc1O [Salicyladehyde thiosemicarbazone] | 4.175 | 0.5 |  |  |  | - |  | - | - | - |  |  |  | 
4 | Oc1ccc(/C=C/c2cc(O)cc(O)c2)cc1 [Resveratrol, reference compound] |  |  | induced a similar effect on both targets | induced a similar effect on both targets |  | - |  |  |  |  | 0.173 | 0.05 | increased SA-β-Gal staining | 
5 | CC1=NCC[C@@H](C(=O)O)N1 [Ectoine] | 359.12 |  |  | reduced the levels of H3K9ac only |  | - | 300 | - |  | - |  |  |  | 
6 | COc1cc(C=O)ccc1O [Vanillin] |  |  |  |  |  | - |  | - | - | - | 5.912 | 1 |  | 
7 | C=C1CC[C@@H]2[C@](C)(CO)[C@H](O)CC[C@@]2(C)[C@@H]1C/C=C1/C(=O)OC[C@H]1O [Andrographolide] | 0.124 | 0.01 | induced a similar effect on both targets | induced a similar effect on both targets | did not prevent cellular senescence | - |  |  |  | - |  |  |  | 
8 | O=c1c(O)c(-c2ccc(O)c(O)c2)oc2cc(O)cc(O)c12 [Quercetin, reference compound] | 0.604 |  | induced a similar effect on both targets | induced a similar effect on both targets |  |  |  |  |  | - |  | 0.25 |  | only promoted HAS2 upregulation
9 | COc1cc(C(=O)O)cc(OC)c1O [Syringic acid] |  |  |  |  |  | - |  | - | - | - | 3.65 | 1 |  | 
10 | CC(C)(CO)[C@@H](O)C(=O)NCCCO [Dexpanthenol, reference compound] |  |  | induced a similar effect on both targets | induced a similar effect on both targets | did not prevent cellular senescence | - |  |  |  | - | 262.48 | 100 |  | 
11 | O=C(OC[C@H]1OC(O)[C@@](O)(COC(=O)c2cc(O)c(O)c(O)c2)[C@@H]1O)c1cc(O)c(O)c(O)c1 (stereo partly shown) [Hamamelitannin] | 0.247 | 0.1 |  |  |  | - |  | - | - | - |  |  |  | 
12 | Cc1ncc(CO)c(CO)c1O [Pyridoxine, reference compound] |  |  |  |  |  | - |  | - | - | - | 16.92 | 5 |  | 
13 | c1coc(CNc2ncnc3[nH]cnc23)c1 [Kinetin] |  |  |  | reduced the levels of H3K9ac only |  | - |  | - |  | - | 1.835 | 0.5 |  | 
14 | O=C(O)c1ccccc1O [Salicylic acid, reference compound] |  | 1 |  |  |  | - |  | - | - | - |  |  |  | 
15 | C[N+](C)(C)CC(=O)O [Betaine] | 507.81 | 50 |  |  |  | - |  | - | - | - |  |  |  | 
